For data set [1] the following is noted: literature values, cited from earlier work; for Transition Temperatures (° C.), PE: PE headgroup; for Transition Temperatures (° C.), PC: PC headgroup.
Data set [2] is described as follows: Phase transition temperatures of sulfobetaine lipids (DSC). The data set is classed as physicochemical. The settings on record: for inner/outer salt form (high/low transition) as function of NaCl concentration: DSC, 10 mM HEPES pH 7.4, NaCl up to 1M; for Transition Temperatures (° C.), SB Inner Salt: hypothesized inner salt form, observed high phase transition; for Transition Temperatures (° C.), SB Outer Salt: hypothesized outer salt form, observed low phase transition. The method, then: All buffers contain 10 mM HEPES, pH 7.4. Preparations were made at 26 mM SB lipid by thin film rehydration at 80° C., followed by brief 20 second bursts of sonication at 80° C. (˜2-4 times) to make dispersions of large bilayer fragments.
Based on our observations that SBL liposome formation and stability is largely dependent on salt composition and concentration we sought to determine if these effects changed the transition temperatures of the liposomes. The data in FIG. 3 clearly depicts a bi-modal phase transition behavior for the SBLs. Without salt, the majority of the SBLs are likely in one of the inner salt forms supported by the observed elevated transition temperatures.
Inner and outer salt conformations of the SBLs are hypothesized to coordinate to the observed high and low phase transitions, respectively.

Data set [3] can be described thus: SBL liposome formation, diameter and PDI in various salts. The class given is physicochemical. The arrangement: key to Liposome diameter (nm): DNF=Did Not Form, no liposomes formed. On the procedure:
The five SBLs were first examined for their ability to make vesicles under standard buffer conditions (10 mM HEPES, 140 mM NaCl, pH 7.4). We observed that none of the five SBLs were able to form stable liposomes after thin film rehydration in this buffer followed by sonication at 80° C. […] To test if the SB headgroup inner salt interactions could be disrupted by an increase in salt concentration, the same liposome formation process was performed at increasing NaCl concentrations. Salts with different anions were also tested to determine if those predicted to have greater binding than Cl^− would allow for liposome formation at concentrations where NaCl was not able to. Liposome-formation results are shown in Table 4 for all five SBLs with a variety of salts and at various NaCl concentrations.
Liposome preparations were made at 26 mM lipid in 10 mM HEPES buffer, pH 7.4 with the specified salt concentration. All preparations were rehydrated and sonicated at 80° C. for 7 minutes, allowed to cool for 5 minutes and then measured.
Liposome diameters were measured both five minutes after sonication and at 24 hours. DPSB and DSSB in NaI both formed gels and could not be measured and DPSB and DSSB with KBr precipitated into particles too large and polydisperse for measurement.

A short description of data set [4]: ZNLP hydrodynamic diameter, zeta potential and encapsulation efficiency. The data set is classed as physicochemical. The settings on record: ZNLP encapsulating siRNA. The method, then:
5-10 min after particle formation liposomes are extruded through either 50 nm or 80 nm polycarbonate membranes 7 times. Methanol can be removed by either evaporation or dialysis.
FIG. 29 is a table showing ZNLP encapsulating siRNA: hydrodynamic diameter and zeta potential: siRNA was encapsulated into ZNLP from various zwitterionic lipids.
FIG. 30 is a table showing the effect of helper lipids on size and encapsulation efficiency: Changing helper lipid and lipid composition affects size and encapsulation efficiency of ZNLP. DOBA-Q formed small lipid vesicles≦80 nm. […] All lipid formulations display negative/neutral zeta potential.

Data set [5] is described as follows: Zeta potential of liposomes as a function of calcium concentration. The data set is classed as physicochemical. The settings on record: across physiological Ca2+ concentrations. The method, then: Liposomes were prepared from either DOPC or DOCPe and their zeta potentials were measured in a Malvern zetaNano instrument as a function of the calcium concentration. Liposomes prepared from either lipid become more positively charged as the Ca^2+ concentration increases.

Setting [6] is: 0 mM NaCl, 26 mM lipid, 10 mM HEPES pH 7.4.
[7] abbreviates: 150 mM KBr, five minutes after sonication.
Where [8] appears, read: 150 mM NaCl, 26 mM lipid, 10 mM HEPES pH 7.4.
[9] abbreviates: 150 mM NaClO4, five minutes after sonication.
Where [10] appears, read: 150 mM NaI, five minutes after sonication.
Setting [11] is: 500 mM NaCl, 26 mM lipid, 10 mM HEPES pH 7.4.
Setting [12] is: 1000 mM NaCl, 26 mM lipid, 10 mM HEPES pH 7.4.

We go through 13 compounds from US8956646B2, “Zwitterionic lipids” (The Regents of the University of California, priority 2010, dated 2015).

Molecules are shown by their SMILES. Entries after “also recorded” stand apart in the source; their conditions may differ.

In the case of `CCCCCCCCCCCCCC(=O)OC[C@H](COP(=O)(O)OCCN)OC(=O)CCCCCCCCCCCCC` [C14 PE], the “Transition Temperatures (° C.), PE” value in data set [1] is 49.4 °C.

On to `CCCCCCCCCCCCCCCC(=O)OCC(C[N+](C)(C)CCCS(=O)(=O)[O-])OC(=O)CCCCCCCCCCCCCCC` (stereo not drawn) [DPSB], for which the phase transitions observed result is reported as “only the high transition” in data set [2] (150 mM NaClO4) and “only the low transition” in data set [2] (150 mM NaF). Moreover, in data set [2] (500 mM NaCl), the “temperature of residual inner salt transition” value was 58 °C. Also, in data set [2], the “inner/outer salt form (high/low transition) as function of NaCl concentration” value is given as “switches from the inner salt to the outer salt at 500 mM”. In data set [2], the “Transition Temperatures (° C.), SB Inner Salt” value turned out to be 60 °C. In data set [2], the “Transition Temperatures (° C.), SB Outer Salt” value was 43 °C. The “Liposome diameter (nm)” value in data set [3] (setting [6]) is given as “DNF”; in data set [3] (150 mM KBr (24 h)) it was “Precipitated”; in data set [3] (setting [7]), 64.35 nm; in data set [3] (setting [8]), “DNF”; in data set [3] (150 mM NaClO4 (24 h)), 42.71 nm; in data set [3] (setting [9]), 35.1 nm. Moreover, the “Liposome diameter (nm)” value is reported as “DNF” in data set [3] (150 mM NaF); “Formed Gel” in data set [3] (150 mM NaI (24 h)); 57.45 nm in data set [3] (setting [10]); 66.95 nm in data set [3] (setting [11]); 92.53 nm in data set [3] (setting [12]). In addition, the PDI is given as 0.134 in data set [3] (setting [7]); 0.353 in data set [3] (150 mM NaClO4 (24 h)); 0.220 in data set [3] (setting [9]); 0.296 in data set [3] (setting [10]); 0.253 in data set [3] (setting [11]); 0.275 in data set [3] (setting [12]).

For `CCCCCCCC/C=C\CCCCCCCC(=O)OCC(C[N+](C)(C)CCCS(=O)(=O)[O-])OC(=O)CCCCCCC/C=C\CCCCCCCC` (stereo not drawn) [DOSB], the “Liposome diameter (nm)” value in data set [3] (setting [6]) is on record as “DNF”; in data set [3] (150 mM KBr (24 h)), 137.6 nm; in data set [3] (setting [7]), 120.8 nm; in data set [3] (setting [8]), “DNF”; in data set [3] (150 mM NaClO4 (24 h)), 69.18 nm; in data set [3] (setting [9]) it was 67.7 nm. The “Liposome diameter (nm)” value is “DNF” in data set [3] (150 mM NaF); 99.24 nm in data set [3] (150 mM NaI (24 h)); 90.58 nm in data set [3] (setting [10]); 126.9 nm in data set [3] (setting [11]); 118.9 nm in data set [3] (setting [12]). The PDI in data set [3] (150 mM KBr (24 h)) was 0.353; in data set [3] (setting [7]), 0.260; in data set [3] (150 mM NaClO4 (24 h)), 0.235; in data set [3] (setting [9]), 0.250; in data set [3] (150 mM NaI (24 h)), 0.253; in data set [3] (setting [10]), 0.246. Further, the PDI came out at 0.197 in data set [3] (setting [11]) and 0.176 in data set [3] (setting [12]).

Consider `CCCCC/C=C\C/C=C\CCCCCCCC(=O)OC[C@H](COP(=O)(O)OCCN)OC(=O)CCCCCCC/C=C\C/C=C\CCCCC` [DIinPE, reference compound], for which the siRNA encapsulation efficiency result in data set [4] is “decreases encapsulation efficiency”.

In the case of `CCCCCCCCCCCCCCCCCC(=O)OC[C@H](COP(=O)(O)OCCN)OC(=O)CCCCCCCCCCCCCCCCC` [C18 PE], the “Transition Temperatures (° C.), PE” value in data set [1] is 74.4 °C.

`CCCCCCCCCCCCCCCC(=O)OCC(COP(=O)(O)OCCN)OC(=O)CCCCCCCCCCCCCCC` (stereo not drawn) [C16 PE]: the “Transition Temperatures (° C.), PE” value in data set [1] is 63.5 °C.

Turning to `CCCCCCCCCCCCCCCC(=O)OC[C@H](COP(=O)([O-])OCC[N+](C)(C)C)OC(=O)CCCCCCCCCCCCCCC` [C16 PC], the “Transition Temperatures (° C.), PC” value in data set [1] was 41.7 °C.

On to `CCCCCCCCCCCCCCCCCC(=O)OC[C@H](COP(=O)([O-])OCC[N+](C)(C)C)OC(=O)CCCCCCCCCCCCCCCCC` [C18 PC], for which the “Transition Temperatures (° C.), PC” value in data set [1] is 55.3 °C.

For the compound `CCCCCCCCCCCCCC(=O)OC[C@H](COP(=O)([O-])OCC[N+](C)(C)C)OC(=O)CCCCCCCCCCCCC` [C14 PC], the “Transition Temperatures (° C.), PC” value in data set [1] was 24.2 °C.

For `CCCCCCCCCCCCCCCCCC(=O)OCC(C[N+](C)(C)CCCS(=O)(=O)[O-])OC(=O)CCCCCCCCCCCCCCCCC` (stereo not drawn) [DSSB], the phase transitions observed entry in data set [2] (150 mM NaF, NaCl, KBr, NaI, NaClO4) is given as “both transitions for all salts except NaClO4”. In data set [2], the “inner/outer salt form (high/low transition) as function of NaCl concentration” value is listed as “never exists completely as the inner salt conformation, but does reside as the outer salt form at 500 mM; also recorded: small low transition peak in a buffer without NaCl”. Also, the “Transition Temperatures (° C.), SB Inner Salt” value in data set [2] amounted to 68 °C. In addition, the “Transition Temperatures (° C.), SB Outer Salt” value in data set [2] came to 57 °C. Further, the “Liposome diameter (nm)” value in data set [3] (setting [6]) is “DNF”; in data set [3] (150 mM KBr (24 h)), “Precipitated”; in data set [3] (setting [7]), 102.3 nm; in data set [3] (setting [8]) it was “DNF”; in data set [3] (150 mM NaClO4 (24 h)), 71.96 nm; in data set [3] (setting [9]), 42.45 nm. Also, the “Liposome diameter (nm)” value in data set [3] (150 mM NaF) is recorded as “DNF”; in data set [3] (150 mM NaI (24 h)), “Formed Gel”; in data set [3] (setting [10]) it was 43.31 nm; in data set [3] (setting [11]), 122.7 nm; in data set [3] (setting [12]), 137.9 nm. The PDI in data set [3] (setting [7]) is reported as 0.123; in data set [3] (150 mM NaClO4 (24 h)), 0.282; in data set [3] (setting [9]), 0.258; in data set [3] (setting [10]), 0.231; in data set [3] (setting [11]) it was 0.285; in data set [3] (setting [12]), 0.404.

Consider `CCCCCCCCCCCC(=O)OCC(C[N+](C)(C)CCCS(=O)(=O)[O-])OC(=O)CCCCCCCCCCC` (stereo not drawn) [DLSB], for which the “Liposome diameter (nm)” value in data set [3] (setting [6]) is “DNF”; in data set [3] (150 mM KBr (24 h)), 74.35 nm; in data set [3] (setting [7]), 54.56 nm; in data set [3] (setting [8]), 1728 nm; in data set [3] (150 mM NaClO4 (24 h)), 37.32 nm; in data set [3] (setting [9]), 30.46 nm. In addition, the “Liposome diameter (nm)” value in data set [3] (150 mM NaF) is recorded as “DNF”; in data set [3] (150 mM NaI (24 h)), 39.24 nm; in data set [3] (setting [10]) it was 28.93 nm; in data set [3] (setting [11]), 41.7 nm; in data set [3] (setting [12]), 56.5 nm. The “ability to make vesicles under standard buffer conditions” value in data set [3] (10 mM HEPES, 140 mM NaCl, pH 7.4, thin film rehydration, sonication at 80° C.) is recorded as “formed large, polydisperse structures”. Also, the PDI in data set [3] (150 mM KBr (24 h)) worked out at 0.254; in data set [3] (setting [7]) it was 0.276; in data set [3] (setting [8]) it was 0.708; in data set [3] (150 mM NaClO4 (24 h)) it was 0.251; in data set [3] (setting [9]) it was 0.205; in data set [3] (150 mM NaI (24 h)), 0.215. Further, the PDI in data set [3] (setting [10]) turned out to be 0.163; in data set [3] (setting [11]), 0.296; in data set [3] (setting [12]) it was 0.361.

With `CCCCCCCC/C=C\CCCCCCCC(=O)OC[C@H](COP(=O)([O-])OCC[N+](C)(C)C)OC(=O)CCCCCCC/C=C\CCCCCCCC` [DOPC, reference compound], in data set [5], the “zeta potential of liposomes” value is recorded as “become positively charged”.

Consider `CCCCCCCC/C=C\CCCCCCCC(=O)OCC(C[N+](C)(C)CCOP(=O)([O-])OCC)OC(=O)CCCCCCC/C=C\CCCCCCCC` (stereo not drawn) [DOCPe], for which the “zeta potential of liposomes” value in data set [5] is recorded as “remain negative”.
